How the values were obtained:
soybean = test: Test B pre/postemergence soybean; type: in vivo, Glycine max; details: for Soybean plant response rating (0 to 10 scale): 0 is no effect
Method in brief: (§1)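 Herbicidal effect was estimated by eye on a ten-point control scale after plants spent twelve to sixteen days in a greenhouse following soil or foliar treatment. Foliar sprays targeted plants at one to four leaves; all doses were formulated in a non-phytotoxic solvent with surfactant.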

velvetleaf = test: Test B pre/postemergence velvetleaf; type: in vivo, Abutilon theophrasti; details: for Velvetleaf plant response rating (0 to 10 scale): 0 is no effect
Method in brief: as §1

smallflower flatsedge = test: Test B flood test smallflower flatsedge; type: in vivo, Cyperus difformis
Method in brief: (§2)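 Each value is a visual injury score relative to controls, with 10 meaning complete control and 0 no effect. Evaluation took place twelve to sixteen days after the 2-leaf-stage plants were treated and kept in the greenhouse.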

duck salad = test: Test B flood test duck salad; type: in vivo, Heteranthera limosa
Method in brief: as §2

common pursiane = test: Test D common purslane; type: in vivo, Portulaca oleracea; details: Preemergence, 0 to 100 scale
Method in brief: (§3)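 Scoring used a 0–100 visual injury scale, with 0 meaning no effect and 100 complete control, assessed 14–21 days after application alongside untreated pots. Preemergence treatments went onto sandy loam surfaces of separately potted seeds within a day of sowing.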

Spanishneedles = test: Test D Spanishneedles; type: in vivo, Bidens bipinnata; details: Preemergence, 0 to 100 scale
Method in brief: as §3

surinam grass = test: Test D surinam grass; type: in vivo, Brachiaria decumbens; details: Preemergence, 0 to 100 scale
Method in brief: as §3

winter wheat [1] = test: Test E winter wheat; type: in vivo, Triticum aestivum; details: Postemergence; for Plant response rating, Wheat (winter): 0 to 100 scale; for Wheat (winter) plant response rating: Rate 250 g/ha, 0 to 100 scale where 0 is no effect and 100 is complete control
Method in brief: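 Greenhouse-grown plants are treated (postemergence: 1- to 4-leaf stage, sandy loam/potting mix 60:40), then evaluated visually versus untreated controls some 21 to 28 days later.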

blackgrass = test: Test E blackgrass; type: in vivo, Alopecurus myosuroides; details: Preemergence; for Blackgrass plant response rating (0 to 100 scale): Rate 250 g/ha
green foxtail = test: Test E green foxtail; type: in vivo, Setaria viridis; details: Preemergence; for Green foxtail plant response rating (0 to 100 scale): Rate 250 g/ha
Italian ryegrass = test: Test E Italian ryegrass; type: in vivo, Lolium multiflorum; details: Preemergence; for I. Ryegrass plant response rating (0 to 100 scale): Rate 250 g/ha
winter wheat [2] = test: Test E winter wheat; type: in vivo, Triticum aestivum; details: Preemergence; for Wheat (winter) plant response rating (0 to 100 scale): Rate 250 g/ha
wild oat = test: Test E wild oat; type: in vivo, Avena fatua; details: Preemergence; for Wild oat plant response rating (0 to 100 scale): Rate 250 g/ha
winter barley = test: Test E winter barley; type: in vivo, Hordeum vulgare; details: Preemergence; for Barley (winter) plant response rating (0 to 100 scale): Rate 250 g/ha
[3] = Postemergence, Rate 125 g/ha, scale of 0 to 10 where 0 is no effect and 10 is complete control
[4] = Preemergence, Rate 31 g/ha, visual rating, scale 0 to 10 (0 no effect, 10 complete control)
[5] = Preemergence, Rate 62 g/ha, scale 0 to 10 (0 no effect, 10 complete control)
[6] = Preemergence, Rate 125 g/ha, 10 is complete control
[7] = Preemergence, Rate 250 g/ha, scale 0 to 10, 0 is no effect, 10 is complete control
[8] = Preemergence, Rate 500 g/ha, scale 0 to 10 (0 no effect, 10 complete control)
[9] = Rate 62 g/ha, Postemergence, scale of 0 to 10 where 0 is no effect and 10 is complete control
[10] = Rate 250 g/ha, Postemergence, scale 0 to 10, 0 is no effect, 10 is complete control
[11] = Rate 500 g/ha, Postemergence, scale 0 to 10
[12] = Postemergence (flood test species), Rate 125 g/ha, scale of 0 to 10 where 0 is no effect and 10 is complete control
[13] = Rate 62 g/ha, Postemergence section, flood test species, scale of 0 to 10 where 0 is no effect and 10 is complete control
[14] = Rate 62 g/ha, headed Pre-emergence (flood test species), scale 0 to 10 (0 no effect, 10 complete control)
[15] = Rate 125 g/ha, Pre-emergence, flood test species, scale 0 to 10 where 0 is no effect and 10 is complete control
[16] = Rate 250 g/ha, Postemergence (flood test), scale 0 to 10, 0 is no effect, 10 is complete control
[17] = Rate 250 g/ha, Pre-emergence, flood-test species, scale 0 to 10, 0 is no effect, 10 is complete control
[18] = Rate 500 g/ha, listed under Postemergence (flood test species), scale 0 to 10
[19] = Rate 16 g/ha, 0 no injury, 100 complete control
[20] = Rate 32 g/ha, 0 no injury, 100 complete control
[21] = Rate 64 g/ha, 0 no injury, 100 complete control
[22] = Rate 125 g/ha, 0 no injury, 100 complete control
[23] = Rate 500 g/ha, 0 no effect, 100 complete control
[24] = Rate 31 g/ha, 0 to 100 scale, 0 no effect, 100 complete control
[25] = Rate 62 g/ha, 0 to 100 scale, 0 no effect, 100 complete control
[26] = Rate 125 g/ha, 0 to 100 scale (0 no effect, 100 complete control)
[27] = Rate 500 g/ha, 0 to 100 scale where 0 is no effect and 100 is complete control

## C=CCn1c(=O)on(C(=O)N(c2ccc(F)cc2)C(C)C)c1=O [Compound 146]
soybean; [3]
  Soybean plant response rating: 6
soybean; [4]
  Soybean plant response rating: 0
soybean; [5]
  Soybean plant response rating: 0
soybean; [6]
  Soybean plant response rating (0 to 10 scale): 0
soybean; [7]
  Soybean plant response rating: 2
soybean; [8]
  Soybean plant response rating: 4
soybean; [9]
  Soybean plant response rating: 3
soybean; [10]
  Plant response rating, Soybean: 6
soybean; [11]
  Soybean plant response rating: 8
velvetleaf; [3]
  Velvetleaf plant response rating: 2
velvetleaf; [4]
  Velvetleaf plant response rating: 3
velvetleaf; [5]
  Velvetleaf plant response rating: 7
velvetleaf; [6]
  Velvetleaf plant response rating (0 to 10 scale): 7
velvetleaf; [7]
  Velvetleaf plant response rating: 8
velvetleaf; [8]
  Velvetleaf plant response rating: 8
velvetleaf; [9]
  Velvetleaf plant response rating: 0
velvetleaf; [10]
  Plant response rating, Velvetleaf: 6
velvetleaf; [11]
  Velvetleaf plant response rating: 6
Smallflower flatsedge; [12]
  S. Flatsedge plant response rating: 0
Smallflower flatsedge; [13]
  S. Flatsedge plant response rating: 0
Smallflower flatsedge; [14]
  S. Flatsedge plant response rating: 0
Smallflower flatsedge; [15]
  S. Flatsedge plant response rating: 0
Smallflower flatsedge; [16]
  Plant response rating, S. Flatsedge: 3
Smallflower flatsedge; [17]
  S. Flatsedge plant response rating: 0
Smallflower flatsedge; [18]
  S. Flatsedge plant response rating: 9
Smallflower flatsedge; Rate 500 g/ha, Pre-emergence, flood test species, scale 0 to 10 (0 no effect, 10 complete control)
  S. Flatsedge plant response rating: 1
Duck salad; [12]
  Ducksalad plant response rating: 3
Duck salad; Rate 31 g/ha, Postemergence section (flood test species), scale 0 to 10
  Ducksalad plant response rating: 0
Duck salad; [13]
  Ducksalad plant response rating: 2
Duck salad; [14]
  Ducksalad plant response rating: 0
Duck salad; [15]
  Ducksalad plant response rating: 0
Duck salad; [16]
  Plant response rating, Ducksalad: 5
Duck salad; [17]
  Ducksalad plant response rating: 0
Duck salad; Rate 500 g/ha, headed Pre-emergence (flood test species), scale 0 to 10 (0 no effect, 10 complete control)
  Plant response rating, Ducksalad: 1
Duck salad; [18]
  Ducksalad plant response rating: 6
Common pursiane; [19]
  Plant response rating, C. purslane: 0
Common pursiane; [20]
  Plant response rating, C. purslane: 0
Common pursiane; [21]
  Plant response rating, C. purslane: 0
Common pursiane; [22]
  Plant response rating, C. purslane: 0
Common pursiane; Rate 250 g/ha
  Plant response rating, C. purslane: 0
Common pursiane; Rate 500 g/ha
  Plant response rating, C. purslane: 0
Spanishneedles; [19]
  Plant response rating, Spanishneedles: 0
Spanishneedles; [20]
  Plant response rating, Spanishneedles: 75
Spanishneedles; [21]
  Spanishneedles plant response rating: 85
Spanishneedles; [22]
  Spanishneedles plant response rating: 90
Spanishneedles; Rate 250 g/ha
  Plant response rating, Spanishneedles: 100
Spanishneedles; Rate 500 g/ha
  Plant response rating, Spanishneedles: 100
Surinam grass; [19]
  Plant response rating Surinam grass: 40
Surinam grass; [20]
  Plant response rating Surinam grass: 60
Surinam grass; [21]
  Surinam grass plant response rating: 60
Surinam grass; [22]
  Surinam grass plant response rating: 100
Surinam grass; Rate 250 g/ha
  Plant response rating Surinam grass: 100
Surinam grass; Rate 500 g/ha
  Plant response rating Surinam grass: 100
Winter wheat [1]; Rate 31 g/ha, 0 no effect, 100 complete control
  Plant response rating, Wheat (winter): 30
Winter wheat [1]; Rate 62 g/ha
  Plant response rating, Wheat (winter): 20
Winter wheat [1]; Rate 125 g/ha
  Plant response rating, Wheat (winter): 40
Winter wheat [1]; [23]
  Plant response rating, Wheat (winter): 20
Winter wheat [1]
  Wheat (winter) plant response rating: 60
blackgrass; [24]
  Plant response rating, Blackgrass: 20
blackgrass; [25]
  Plant response rating, Blackgrass: 70
blackgrass; [26]
  Plant response rating, Blackgrass: 85
blackgrass
  Blackgrass plant response rating (0 to 100 scale): 90
blackgrass; [27]
  Plant response rating, Blackgrass: 70
Green foxtail; [24]
  Plant response rating, Green foxtail: 50
Green foxtail; [25]
  Plant response rating, Green foxtail: 55
Green foxtail; [26]
  Plant response rating, Green foxtail: 50
Green foxtail
  Green foxtail plant response rating (0 to 100 scale): 65
Green foxtail; [27]
  Plant response rating, Green foxtail: 100
Italian ryegrass; [24]
  Plant response rating, I. Ryegrass: 50
Italian ryegrass; [25]
  Plant response rating, I. Ryegrass: 40
Italian ryegrass; [26]
  Plant response rating, I. Ryegrass: 50
Italian ryegrass
  I. Ryegrass plant response rating (0 to 100 scale): 60
Italian ryegrass; [27]
  Plant response rating, I. Ryegrass: 90
Winter wheat [2]; [24]
  Plant response rating, Wheat (winter): 20
Winter wheat [2]; [25]
  Plant response rating, Wheat (winter): 0
Winter wheat [2]; [26]
  Plant response rating, Wheat (winter): 10
Winter wheat [2]
  Wheat (winter) plant response rating (0 to 100 scale): 0
Winter wheat [2]; [27]
  Plant response rating, Wheat (winter): 100
Wild oat; [24]
  Plant response rating, Wild oat: 40
Wild oat; [25]
  Plant response rating, Wild oat: 25
Wild oat; [26]
  Plant response rating, Wild oat: 30
Wild oat
  Wild oat plant response rating (0 to 100 scale): 50
Wild oat; [27]
  Plant response rating, Wild oat: 85
Winter barley; [24]
  Plant response rating, Barley (winter): 20
Winter barley; [25]
  Plant response rating, Barley (winter): 10
Winter barley; [26]
  Plant response rating, Barley (winter): 10
Winter barley
  Barley (winter) plant response rating (0 to 100 scale): 10
Winter barley; [27]
  Plant response rating, Barley (winter): 95

## Cc1ccc(N(C(=O)n2oc(=O)n(C(C)C)c2=O)C(C)C)cc1 [Compound 132]
soybean; [3]
  Soybean plant response rating: 3
soybean; [5]
  Soybean plant response rating: 0
soybean; [6]
  Soybean plant response rating (0 to 10 scale): 0
soybean; [7]
  Soybean plant response rating: 2
soybean; [8]
  Soybean plant response rating: 4
soybean; [9]
  Soybean plant response rating: 3
soybean; [10]
  Plant response rating, Soybean: 4
soybean; [11]
  Soybean plant response rating: 6
velvetleaf; [3]
  Velvetleaf plant response rating: 2
velvetleaf; [5]
  Velvetleaf plant response rating: 3
velvetleaf; [6]
  Velvetleaf plant response rating (0 to 10 scale): 4
velvetleaf; [7]
  Velvetleaf plant response rating: 6
velvetleaf; [8]
  Velvetleaf plant response rating: 10
velvetleaf; [9]
  Velvetleaf plant response rating: 2
velvetleaf; [10]
  Plant response rating, Velvetleaf: 3
velvetleaf; [11]
  Velvetleaf plant response rating: 3
Common pursiane; [21]
  Plant response rating, C. purslane: 10
Spanishneedles; [21]
  Spanishneedles plant response rating: 0
Surinam grass; [21]
  Surinam grass plant response rating: 30
Winter wheat [1]; Rate 125 g/ha
  Plant response rating, Wheat (winter): 20
Winter wheat [1]; [23]
  Plant response rating, Wheat (winter): 80
Winter wheat [1]
  Wheat (winter) plant response rating: 50
blackgrass; [26]
  Plant response rating, Blackgrass: 20
blackgrass
  Blackgrass plant response rating (0 to 100 scale): 60
blackgrass; [27]
  Plant response rating, Blackgrass: 75
Green foxtail; [26]
  Plant response rating, Green foxtail: 60
Green foxtail
  Green foxtail plant response rating (0 to 100 scale): 98
Green foxtail; [27]
  Plant response rating, Green foxtail: 100
Italian ryegrass; [26]
  Plant response rating, I. Ryegrass: 20
Italian ryegrass
  I. Ryegrass plant response rating (0 to 100 scale): 100
Italian ryegrass; [27]
  Plant response rating, I. Ryegrass: 100
Winter wheat [2]; [26]
  Plant response rating, Wheat (winter): 30
Winter wheat [2]
  Wheat (winter) plant response rating (0 to 100 scale): 40
Winter wheat [2]; [27]
  Plant response rating, Wheat (winter): 60
Wild oat; [26]
  Plant response rating, Wild oat: 35
Wild oat
  Wild oat plant response rating (0 to 100 scale): 50
Wild oat; [27]
  Plant response rating, Wild oat: 65
Winter barley; [26]
  Plant response rating, Barley (winter): 10
Winter barley
  Barley (winter) plant response rating (0 to 100 scale): 50
Winter barley; [27]
  Plant response rating, Barley (winter): 60

Source: patent US6737383B1, “Herbicidal oxadiazolidines” (priority 1999, dated 2004)
